Source: patent publication US10179770B2, “Quinolines derivatives as novel anticancer agents” (GENOSCIENCE PHARMA, priority 2013, dated 2019)

What was measured:
[1] = test system: ACHN; test: NCI-60 screen (SRB); assay type: cell-based; conditions: ACHN (Renal)
Summary of the method: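 Cells grown in RPMI 1640 with 5% FBS were plated, left 24 h, then exposed to five drug concentrations for 48 h at 37 °C. TCA-fixed protein was stained with SRB and read at 515 nm. GI50, TGI and LC50 were derived against time-zero and untreated control absorbances.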

[2] = test system: ALDH+ cancer stem cells (CSC) in MOLM-14 cell line; test: Aldefluor kit assay, ALDH+ compartment analysis; assay type: cell-based, human; conditions: for Aldefluor™ positive CSCs (% of control) / Activity against CSCs in Aldefluor™ assay (proportion of CSCs): MOLM-14; for Aldefluor™ positive CSCs (% of control): 72 h; for Activity against CSCs in Aldefluor™ assay (proportion of CSCs): dose dependent, Cytarabine up to 3-fold its EC50; for Aldefluor positive CSCs (% of control): MOLM-14 cell line, 72 h incubation
Source text: Analysis of the of aldehyde dehydrogenase (ALDH) compartment and high activity level of aldehyde dehydrogenase activity (ALDH+) was used to detect tumor initiating cells (cancer stem cells, CSC) population. The Aldefluor™ kit assay (StemCell Technologies) allowed to assess the activity of drugs on CSC cells like in aa MOLM-14 acute myeloid leukemia cell line population. The Aldefluor™ kit assay was used according to the procedure described by the manufacturer. Briefly, MOLM-14 cell line was cultured in RPMI-1640 Medium supplemented with 10% v/v Fetal Bovine Serum (FBS), 1% Penicillin-Streptomycin and maintained at 37° C. with 5% CO2. 5·10^5 cells were used in this assay. Each compound was added at different concentrations (see table 13 and 14), and cell cultures were incubated for 72 h. Vehicle (H2O) was used as a control, and all compounds were tested in a constant percentage of vehicle. Cells obtained from cell culture were incubated for 45 minutes at 37° C. with Aldefluor™ buffer assay containing the Bodipy™-aminoacetaldehyde (BAAA), a fluorescent ALDH aldehyde substrate. ALDH converts the fluorescent substrate BAAA to the Bodipy™-aminoacetic acid (BAA) which is retained in the cell. An active efflux inhibitor is present in the Adelfluor™ assay buffer in order to avoid the active efflux from the cell of the substrate product ALDH dependent converted BAA. The fluorescent signal is directly proportional to the ALDH activity in the cells and is measured by flow cytometry. A negative control is used to measure the background fluorescence level. For such purpose, 4-(N,N-diethylamino)-benzaldehyde (DEAB) was used as selective ALDH inhibitor. A viability cell count was performed using LIVE/DEAD® Fixable Far Red Dead Cell Stain Kit (Invitrogen). The experimental data are analyzed using a computer program, Graphpad Prism (GraphPad Software, Inc. La Jolla, Calif.) and EC50 values were determined as the dose of compound required to reduce absorbance values to 50% of the signal obtained for vehicle treated cell cultures.

Row | Structure (SMILES) | TGI [1] | Growth percent at 10 μM [1] | GI50 ([1]; Homo sapiens) | LC50 (concentration causing 50% net cell kill) ([1]; Homo sapiens) | Aldefluor™ positive CSCs (% of control) ([2]; 5 μM) | Aldefluor™ positive CSCs (% of control) ([2]; 10 μM) | Aldefluor™ positive CSCs (% of control) ([2]; 20 μM) | Aldefluor™ positive CSCs (% of control) ([2]; 40 μM) | Activity against CSCs in Aldefluor™ assay (proportion of CSCs) [2] | Aldefluor positive CSCs (% of control) ([2]; 5 μM) | Aldefluor positive CSCs (% of control) ([2]; 10 μM) | Aldefluor positive CSCs (% of control) ([2]; 20 μM) | Aldefluor positive CSCs (% of control) ([2]; 40 μM)
1 | CCN(CC)C1CCN(C(C)c2cc(-c3ccccc3)nc3ccccc23)CC1.Cl.Cl (stereo not drawn) [XIX-3, 2-phenyl-4-{1-[4-(N,N-diethylamino)piperidin-1-yl]-eth-1-yl}quinoline dihydrochloride] | 23 µM | + (cell growth 60 > % < 80) | 11 µM | 50 µM | 86 % of control | 66 % of control | 42 % of control | 25 % of control | reduced the proportion of CSCs | – | – | – | –
2 | CC(C)(C)NC1CCN(c2cc(-c3ccc(Cl)cc3)nc3ccccc23)CC1.Cl.Cl [XII-4, 2-(4-chloro-phenyl)-4-(4-N-tert-butylamino-piperidin-1-yl)quinoline dihydrochloride] | – | + (cell growth 60 > % < 80) | – | – | – | – | – | – | – | – | – | – | –
3 | Cc1ccc(-c2cc(N3CCC(NC(C)(C)C)CC3)c3ccccc3n2)cc1.Cl.Cl [XIII-8, 2-(4-methyl-phenyl)-4-(4-N-tert-butylamino-piperidin-1-yl)quinoline dihydrochloride] | – | – | – | – | – | – | – | – | reduced the proportion of CSCs | 84 % of control | 83 % of control | 58 % of control | 23 % of control
